Literature values as cited in patent US7776366B2, “Method and nutraceutical composition for mammals” (MD's Choice, Inc., priority 2002, dated 2010).

Conditions: within 30 minutes, in at least 3 species, via glucose transporter

SMILES: N[C@H]1C(O)O[C@H](CO)[C@@H](O)[C@@H]1O.O=S(=O)(O)O (stereo partly shown) [Glucosamine sulphate]
- efficiency of active absorption from the digestive tract: over 90%
